Antimicrobial activity data for two compounds are collected here from US20230050070A1, “Antimicrobial Composition” (ATLANTIC TECHNOLOGIECAL UNIVERSITY, priority 2019, published 2023).

In the test the test system is various species of microorganism. As to the kind of experiment: Well diffusion / Kirby-Bauer test, zones of inhibition. The class given is cell-based. The note with it: SA and ASA tested alone, without A^3IS. The procedure:
The purpose of the Kirby-Bauer disk diffusion susceptibility test is to determine the sensitivity or resistance of pathogenic aerobic and facultative anaerobic bacteria to various antimicrobial compounds.
Escherichia coli (NCIMB 8545), Staphylococcus aureus (NCIMB 951 and Pseudomonas aeruginosa (NCIMB 8626) are grown on nutrient agar or in nutrient broth for 24 hrs at 37° C.
Candida albicans (NCIMB 3179) and Saccharomyces cerevisiae are grown on sabaroud dextrose agar or in sabaroud dextrose broth for 24 hrs at 37° C.,
Bacterial growth is monitored by measuring the culture optical density (OD) in a spectrophotometer (Anthos 2010) at a wavelength of 620 nm.
Agar plates are inoculated by swabbing overnight culture onto the plate surface. Plates are allowed to stand at room temperature for 15 minutes before use. Wells 8.2 mm diameter are bored into the surface of the agar. A 180 μl sample is placed into each well. The samples diffuse into the agar around the well and are assayed for an ability to produce a zone of inhibition. Plates are incubated for 24, 48 or 72 hrs and zones of inhibition are measured using an Autodata automatic zone reader. The diameter of zones, including the diameter of the well (8.2 mm), is recorded.
Different microbial strains were each plated out according to the above-mentioned methods. […]

Turning to `CC(=O)Oc1ccccc1C(=O)O` [ASA, Acetyl salicylic acid], the antimicrobial activity entry is “no discernible activity”.
As for `O=C(O)c1ccccc1O` [SA, Salicylic acid], the antimicrobial activity entry was “no discernible activity”.
